According to US5227487A, “Certain tricyclic and pentacyclic-hetero nitrogen rhodol dyes” (Molecular Probes, Inc., priority 1990, dated 1993):
Where “and” joins values, the source holds several entries; their conditions need not be identical. Equal entries are not always repeated.

What was measured:
[1] = Absorption spectra and extinction coefficients of rhodol dyes; type: physicochemical; conditions: aqueous 50 mM phosphate buffer at pH 8.0-9.0
Procedure: Stock solutions were prepared by accurately weighting and dissolving 5-10 mg samples of the compounds in 50 mM potassium phosphate buffer at pH 8.0. Absorbance solutions were prepared by further diluting the stock solution with 50 mM potassium phosphate buffer at pH 8.0.

[2] = Fluorescence emission spectra of rhodol dyes (uncorrected); type: physicochemical
Procedure: Uncorrected fluorescence data was obtained on a Perkin-Elmer Model 650-40 Fluorescence Spectrophotometer equipped with a Perkin-Elmer/Hitachi 057 X-Y recorder using a ten- to twentyfold dilution of the absorbance solutions. Fluorescence of the rhodol dyes was determined for the reactive dyes and for their conjugates with model compounds by dissolving the dye at a concentration above 1×10^-8 M in an appropriate solvent such as water, methanol or chloroform, followed by measurement of the fluorescence in a suitable instrument, such as a fluorescence spectrometer or fluorescence microscope.

[3] = Absorption spectra and extinction coefficients of rhodol dyes; type: physicochemical; conditions: in methanol
[4] = Quantum yield relative to fluorescein; type: physicochemical; conditions: aqueous 50 mM phosphate buffer at pH 8.0-9.0; uncorrected
Procedure: (§1) An estimate of the quantum yield of the dyes relative to fluorescein (quantum yield=0.92 in 0.01M sodium hydroxide) was obtained by integrating the emission spectrum of the dye excited at the same wavelength and optical density as the standard. Approximate photostabilities of the rhodol derivatives, relative to fluorescein, were determined by measuring the time dependent decrease in fluorescence intensity, during continuous illumination, of equimolar solutions of the rhodol dyes and fluorescein.

[5] = pKa / pH dependence of absorption and emission; type: physicochemical
Procedure: | ^c In aqueous 50 mM phosphate buffer

[6] = Photobleaching / photostability relative to fluorescein; type: physicochemical; conditions: continuous illumination; equimolar solutions; 50 mM potassium phosphate pH 8.0 (FIG. 3)
Procedure: as §1

[7] = background, cited from earlier work
[8] = cited from earlier work
[9] = background; cited from earlier work
[10] = background; cited from earlier work; remark: listed apart in the source
[11] = aqueous 50 mM phosphate buffer at pH 8.0-9.0

Compound	Abs Max [1] [nm]	Em Max [2, 11] [nm]	ε (extinction coefficient) [1] [M⁻¹ cm⁻¹]	Em Max ([2]; in methanol) [nm]	Abs Max [3] [nm]	QY (quantum yield) [4]	other results
CCc1cc2c(C(=O)O)c3cc4c5c(c3oc-2cc1=O)CCCN5CCC4 [Compound 52]	558	603					
NCCCCCNC(=O)c1ccc(C(=O)O)c(-c2c3cc(Cl)c(=O)cc-3oc3c4c5c(cc23)CCCN5CCC4)c1 [Compound 30]			57300	567	541		
O=C(O)CCc1cc2c(cc1O)Oc1c(cc3c4c1CCCN4CCC3)C21OC(=O)c2ccccc21 (stereo not drawn) [Compound 39, 3'-hydroxy-2,3,6,7-tetrahydro-1H, 5H-quinolizino[1,9-hi]-spiro[isobenzofuran-1(3H),9'-[9H]xanthen-3-one-2'-(3-propionic acid)]	541	562	58200			0.41	pKa ([5]; 50 mm phosphate buffer): 6.63
5(and -6)-carboxy-3'-hydroxy-6'-amino-spiro[isobenzofuran-1(3H,9'-[9H]xanthen-3- one [Compound 1]	492	517	59900			0.81	pKa ([5]; aqueous 50 mM phosphate buffer): 5.59; pH dependence of absorption and emission ([5]; aqueous solution, between pH 6 and 10, compared with fluorescein (FIG. 4)): less significant pH dependence; photostability / rate of photobleaching relative to fluorescein [6]: superior photostability
O=C(O)CCCCCCCCCCCc1cc2cc3cc4c5c(c3oc-2cc1=O)CCCN5CCC4 [Compound 56]				556	532		ε (extinction coefficient) [3]: 84400 M⁻¹ cm⁻¹
O=C(O)CCc1cc2cc3cc4c5c(c3oc-2cc1=O)CCCN5CCC4 [Compound 54]	538	562	69500	555	531	0.44	ε (extinction coefficient) [3]: 81400 M⁻¹ cm⁻¹
CCCCCCCCCCCCCCCCc1cc2c(-c3cc(C(=O)O)ccc3C(=O)O)c3cc4c5c(c3oc-2cc1=O)CCCN5CCC4 [Compound 34]	547	572		562	531		ε (extinction coefficient) [3]: 84400 M⁻¹ cm⁻¹
O=C(O)CCCCc1cc2cc3cc4c5c(c3oc-2cc1=O)CCCN5CCC4 [Compound 55]	538	562	64100	556	532		ε (extinction coefficient) [3]: 88700 M⁻¹ cm⁻¹
Carboxytetramethylrhodamine [reference compound]	547	574	77000			0.23	
O=C(CI)NCCCCCNC(=O)CCc1cc2c(-c3ccccc3C(=O)O)c3cc4c5c(c3oc-2cc1=O)CCCN5CCC4 [Compound 44]	544	572					
O=C(O)CCc1cc2c(C(F)(F)F)c3cc4c5c(c3oc-2cc1=O)CCCN5CCC4 [Compound 57]	602	635		633	593		
O=C(O)c1ccc(C(=O)O)c(-c2c3cc(Cl)c(=O)cc-3oc3c4c5c(cc23)CCCN5CCC4)c1 [Compound 28]	547	572	74500			0.31	pKa ([5]; 50 mm phosphate buffer): 5.11
NCCNC(=O)c1ccc(C(=O)O)c(-c2c3cc(Cl)c(=O)cc-3oc3c4c5c(cc23)CCCN5CCC4)c1 [Compound 31]				568	540		
5-(and -6)-carboxy-2',7'-dimethyl-3'-hydroxy-6'-N-ethylamino-spiro[isobenzofuran- 1(3H),9'-[9H]xanthen-3-one [Compound 12]	510	535	54800			0.81	pKa ([5]; aqueous 50 mM phosphate buffer): 5.82
O=C1OC2(c3ccc(O)cc3Oc3cc(O)ccc32)c2ccccc21 [Fluorescein]	490	514	75000			0.92	pKa ([5]; aqueous 50 mM phosphate buffer): 6.4; absorption intensity at 514 nm relative to maximum at 492 nm ([7]; 514 nm): less than 10%; absorptivity at peak ([7]; at absorption peak): 75,000 cm^-1 M^-1; absorption maximum [7]: 492 nm and ~490 nm; quantum yield of the standard ([8]; in 0.01M sodium hydroxide): 0.92; pH sensitivity [9]: pH dependent absorption spectrum
O=C(O)c1ccc(C(=O)O)c(-c2c3cc(Cl)c(=O)cc-3oc3cc4c(cc23)CCCN4)c1 [Compound 24, 5-(and-6)-carboxy-2'-chloro-3'-hydroxy-1,2,3,4tetrahydropyridino[5,6-i]-spiro[isobenzofuran-1(3H),9'-[9H]xanthen-3-one]	524	546				0.37	pKa ([5]; 50 mm phosphate buffer): 4.50
[N-]=[N+]=Nc1ccc(C(=O)NCCCCCNC(=O)CCc2cc3c(cc2O)Oc2c(cc4c5c2CCCN5CCC4)C32OC(=O)c3ccccc32)cc1 (stereo not drawn) [Compound 43]	545	572					
O=c1cc2oc3c4c5c(cc3c(CCl)c-2cc1Cl)CCCN5CCC4 [Compound 51]				578	563		
CN(C)c1ccc2c(-c3ccccc3C(=O)[O-])c3ccc(N(C)C)cc3[o+]c2c1 [Tetramethylrhodamine]							quantum yield in alcohol ([8]; background, in alcohol): above 0.90; quantum yield in water ([8]; background, in water): approximately 0.23; pH sensitivity [9]: pH insensitive; photostability [10]: relatively photostable
O=C(CCc1cc2c(-c3ccccc3C(=O)O)c3cc4c5c(c3oc-2cc1=O)CCCN5CCC4)NCCCCCNC(=O)CN1C(=O)C=CC1=O [Compound 45]	544	573					
CCNc1cc2oc3cc(=O)c(CCC(=O)O)cc-3c(-c3ccccc3C(=O)O)c2cc1C [Compound 17]	510	534	79400			0.65	pKa ([5]; 50 mm phosphate buffer): 5.91
N#Cc1c2cc(CCC(=O)O)c(=O)cc-2oc2c3c4c(cc12)CCCN4CCC3 [Compound 58]	640	664					
NCCCCCNC(=O)CCc1cc2c(cc1O)Oc1c(cc3c4c1CCCN4CCC3)C21OC(=O)c2ccccc21 (stereo not drawn) [Compound 50]	543	572					
C=CC(=O)NCCCCCNC(=O)CCc1cc2c(-c3ccccc3C(=O)O)c3cc4c5c(c3oc-2cc1=O)CCCN5CCC4 [Compound 42]	544	571					
NNC(=O)CCc1cc2c(-c3ccccc3C(=O)O)c3cc4c5c(c3oc-2cc1=O)CCCN5CCC4 [Compound 49]	542	573					
Carboxyfluorescein [reference compound]	491	514	75000			0.78	pKa ([5]; 50 mm phosphate buffer): 6.4
